# Assay results published in patent US20240131036A1, “COMPOSITIONS AND METHODS OF TREATING CONDITIONS” (priority 2020, published 2024).
# Read-outs that look alike come from different tables or passages of the source.
# Experiments:
# SARS-CoV-2 RdRP = SARS-CoV-2 RdRP (Severe acute respiratory syndrome coronavirus 2 (2019-nCoV) (SARS-CoV-2), UniProt P0DTD1); assay: Enzymatic assay for RdRP (AlphaScreen, BPS Biosciences); assay type: biochemical
# Experimental: Min=negative control without any enzyme (0% enzyme activity), Max=positive control with enzyme and substrate (100% enzyme activity). […] The statistical significance of differences was evaluated by one-way ANOVA, *p<0.05, **p<0.01, ***p<0.001, for all conditions relative to the ethanol blank, n=3. […] Min=negative control without any enzyme (0% enzyme activity), Max=positive control with enzyme and substrate (100% enzyme activity). The statistical significance of differences was evaluated by one-way ANOVA, *p<0.05, **p<0.01, ***p<0.001, for all conditions relative to the ethanol blank, n=3
# The assay for RdRP activity was outsourced to BPS Biosciences ([…], California, USA) using the following protocol. […] The RdRP reactions were performed in triplicate at 37° C. for 60 min in a 10 μl mixture containing assay buffer, RNA duplex, ATP substrate and enzyme, and the test compound. The reactions were carried out in wells of 384-well Optiplate (PerkinElmer). After enzymatic reactions, 10 μl of anti-Dig Acceptor beads (PerkinElmer, diluted 1:500 with lx detection buffer) were added to the reaction mix. After brief shaking, the plate was incubated for 30 min. […] The values of % activity versus the concentrations of the compound tested were then plotted using non-linear regression analysis of a Sigmoidal dose-response curve generated with the equation Y=B+(T−B)/1+10^((LogEC50−X)×Hill Slope), where Y=percent activity, B=minimum percent activity, T=maximum percent activity, X=logarithm of compound and Hill Slope=slope factor or Hill coefficient. The IC50 value was determined as the concentration causing half-maximal activity.
# [1] = molecular target: SARS-CoV-2 3CL^Pro (M^pro) (Severe acute respiratory syndrome coronavirus 2 (2019-nCoV) (SARS-CoV-2), UniProt P0DTD1); assay: Enzymatic assay for M^pro (3CL Protease, MBP-tagged assay kit); assay type: biochemical; settings: for inhibition at 0.2 µM: 2×10^−7 M, read-out: M^pro enzyme inhibition
# Experimental: FIG. 1.3A and 1.3B illustrate the enzyme inhibition by the selected sterols and secosteroids. […] Min=negative control without any enzyme (0% enzyme activity), Max=positive control with enzyme and substrate (100% enzyme activity). […] The statistical significance of differences was evaluated by one-way ANOVA, *p<0.05, **p<0.01, ***p<0.001, for all conditions relative to the ethanol blank, n=3. FIG. 1.3B illustrates the RdRP enzyme activity inhibition by selected sterols and secosteroids. […] Min=negative control without any enzyme (0% enzyme activity), Max=positive control with enzyme and substrate (100% enzyme activity). The statistical significance of differences was evaluated by one-way ANOVA, *p<0.05, **p<0.01, ***p<0.001, for all conditions relative to the ethanol blank, n=3
# The SARS-CoV-2 3CL^Pro (M^pro), MBP-tagged Assay Kit (BPS Biosciences, San Diego, CA, USA) was used to measure 3CL Protease (M^pro) activity for screening and profiling applications. The 3CL inhibitor GC376 was included as a positive control and also used as a standard. The assay was performed according to the protocol provided by the manufacturer with the concentration of compounds tested being 10^−7 M.
# [2] = very high doses (3-60 μg/kg); cited from earlier work
# human epithelial cells = assay: Gene Set Enrichment Analysis (GSEA) of microarray data (GSE117351), antiviral pathways; assay type: cell-based; design: key: ^..: the effect is absent
# [3] = read-out: IC50 for inhibition of the enzyme activity of RdRP
# [4] = pathway: Host Interactions with HIV factors
# [5] = pathway: Host Interactions with Influenza Factors
# [6] = pathway: Influenza Viral RNA Transcription & Replication
compound,measurement,setting,value
"C[C@H](CCCC(C)(C)O)[C@H]1CC[C@H]2C3=CC=C4C[C@@H](O)CC[C@@]4(C)[C@@H]3CC[C@]12C [25(OH)L3, 9β,10α-cholesta-5,7-diene-3β,25-diol]",IC50,SARS-CoV-2 RdRP; [3],500 nM
same,inhibition at 0.2 µM,[1],10 to 19%
"CC(C)[C@@H](O)CC[C@@H](C)[C@H]1CC[C@H]2C3=CC=C4C[C@@H](O)CC[C@@]4(C)[C@@H]3CC[C@]12C [24(OH)L3, 9β,10α-cholesta-5,7-diene-3β,24-diol]",IC50,SARS-CoV-2 RdRP; [3],2500 nM
same,inhibition at 0.2 µM,[1],10 to 19%
"CC(C)CCC[C@](C)(O)[C@H]1CC[C@H]2C3=CC=C4C[C@@H](O)CC[C@@]4(C)[C@@H]3CC[C@@]21C [20S(OH)L3, 9β,10α-cholesta-5,7-diene-3β,20-diol]",IC50,SARS-CoV-2 RdRP; [3],1000 nM
"C=C1/C(=C\C=C2/CCC[C@]3(C)[C@@H]([C@H](C)CCCC(C)(C)O)CC[C@@H]23)C[C@@H](O)C[C@@H]1O [1,25(OH)2D3, (3S,5Z,7E)-9,10-secocholesta-5,7,10(19)-trien-1,3,25-triol, reference compound]",toxicity and calcemic activity,[2],calcemic
same,GSEA Direction,human epithelial cells,^..
same,GSEA NES (Normalized Enriched Score),human epithelial cells,^..
same,GSEA NES (Normalized Enriched Score),human epithelial cells; pathway: HIV Life Cycle,−2.503
same,GSEA Direction,human epithelial cells; [4],^..
same,GSEA NES (Normalized Enriched Score),human epithelial cells; [4],^..
same,GSEA Direction,human epithelial cells; [5],^..
same,GSEA NES (Normalized Enriched Score),human epithelial cells; [5],^..
same,GSEA Direction,human epithelial cells; [6],^..
same,GSEA NES (Normalized Enriched Score),human epithelial cells; [6],^..
same,GSEA NES (Normalized Enriched Score),human epithelial cells; pathway: Late Phase of HIV Life Cycle,−2.658
same,GSEA NES (Normalized Enriched Score),human epithelial cells; pathway: Viral Messenger RNA Synthesis,−2.405
same,GSEA NES (Normalized Enriched Score),human epithelial cells; pathway: Viral mRNA Translation,−3.601
"C=C1CCC(O)CC1=CC=C1CCCC2(C)C1CCC2C(C)(O)C=CC(C)C(C)C (stereo not shown) [20(OH)D2, 20-hydroxyvitamin D2]",toxicity and calcemic activity,[2],not toxic and non-calcemic
"C=C1CC[C@H](O)C/C1=C/C=C1\CCC[C@@]2(C)[C@H]1CC[C@@H]2[C@@](C)(O)CCCC(C)C [20S(OH)D3, (3S,5Z,7E)-9,10-secocholesta-5,7,10(19)-trien-3,20-diol]",IC50,SARS-CoV-2 RdRP,2600 nM
"(3S,5Z,7E)-9,10-secocholesta-5,7,10(19)-trien-3,25-diol [25(OH)D3, reference compound]",toxicity and calcemic activity,[2],calcemic
same,IC50,SARS-CoV-2 RdRP; [3],1300 nM
same,inhibition of M^pro (in words),[1]; 100 nM,significant inhibition
"CC(C)CCC[C@](C)(O)[C@H]1CC[C@H]2C3=CC=C4C[C@@H](O)CC[C@]4(C)[C@H]3CC[C@@]21C [20S(OH)7DHC, Cholesta-5,7-dien-3β,20-diol]",IC50,SARS-CoV-2 RdRP; [3],4700 nM
same,inhibition at 0.2 µM,[1],10 to 19%
